System: MDA-MB-231 complex spheroids, growth inhibition
Assay: Anticancer human tumor MDA-MB-231 cell line growth inhibition [Asc];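 further: spheroids exposed to compounds for 7 days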
Conditions: for viability, T/C: stronger effect = lower value
Summary of the method: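 Tumor cells were grown as complex spheroids with human endothelial cells (HUVEC) and human mesenchymal stem cells as stroma. Agents were tested alone and in combination, in half-log steps down from the clinical Cmax, or from 10 microM where Cmax was unknown.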

[1] = curve of first compound, second compound 0.1 µM
[2] = curve of first compound, second compound 0.316 µM
[3] = curve of first compound, second compound 1 µM
[4] = curve of first compound, second compound 3.16 µM
[5] = curve of first compound, second compound 10 µM
[6] = second compound 0.1 µM, first compound 0.0316 µM
[7] = second compound 0.1 µM, first compound 0.1 µM
[8] = second compound 0.1 µM, first compound 0.316 µM
[9] = second compound 0.1 µM, first compound 1 µM
[10] = second compound 0.316 µM, first compound 0.0316 µM
[11] = second compound 0.316 µM, first compound 0.1 µM
[12] = second compound 0.316 µM, first compound 0.316 µM
[13] = second compound 0.316 µM, first compound 1 µM
[14] = second compound 1 µM, first compound 0.0316 µM
[15] = second compound 1 µM, first compound 0.1 µM
[16] = second compound 1 µM, first compound 0.316 µM
[17] = second compound 1 µM, first compound 1 µM
[18] = second compound 3.16 µM, first compound 0.0316 µM
[19] = second compound 3.16 µM, first compound 0.1 µM
[20] = second compound 3.16 µM, first compound 0.316 µM
[21] = second compound 3.16 µM, first compound 1 µM
[22] = second compound 10 µM, first compound 0.0316 µM
[23] = second compound 10 µM, first compound 0.1 µM
[24] = second compound 10 µM, first compound 0.316 µM
[25] = second compound 10 µM, first compound 1 µM

For `CCN1CCN(Cc2ccc(Nc3ncc(F)c(-c4cc(F)c5nc(C)n(C(C)C)c5c4)n3)nc2)CC1` + Cc1c(S(C)(=O)=O)c(-c2cc(F)cc(N3CCN(c4ccc(NS(=O)(=O)c5ccc(NC(CCN6CCC(C(=O)OCCCP(=O)(O)O)CC6)CSc6ccccc6)c(S(=O)(=O)C(F)(F)F)c5)cc4)CC3)c2)c(-c2ccc(Cl)cc2)n1C(C)C, the IC50 [1] was 648 nM, the IC50 [2] was > 1000 nM and the IC50 [3] was 306 nM. It also gave an IC50 [4] of 258 nM, an IC50 [5] of 308 nM and a viability, T/C (second compound 0.1 µM, first compound 0.00316 µM) of 97.4%. It also gave a viability, T/C (second compound 0.1 µM, first compound 0.01 µM) of 97.9%, a viability, T/C [6] of 84% and a viability, T/C [7] of 65.6%. It also gave a viability, T/C [8] of 47.9%, a viability, T/C [9] of 51.5% and a viability, T/C (second compound 0.316 µM, first compound 0.00316 µM) of 103%. It also gave a viability, T/C (second compound 0.316 µM, first compound 0.01 µM) of 95.4%, a viability, T/C [10] of 84.9% and a viability, T/C [11] of 64.8%. For the same molecule, the viability, T/C [12] was 49.7%, the viability, T/C [13] was 53.1% and the viability, T/C (second compound 1 µM, first compound 0.00316 µM) was 98.1%. It also gave a viability, T/C (second compound 1 µM, first compound 0.01 µM) of 93.2%, a viability, T/C [14] of 87.7% and a viability, T/C [15] of 67.6%. It also gave a viability, T/C [16] of 49.5%, a viability, T/C [17] of 42.1% and a viability, T/C (second compound 3.16 µM, first compound 0.00316 µM) of 95.9%. The viability, T/C (second compound 3.16 µM, first compound 0.01 µM) was 91.9%, the viability, T/C [18] was 83.8% and the viability, T/C [19] was 63.8%. It also gave a viability, T/C [20] of 47.7%, a viability, T/C [21] of 36.5% and a viability, T/C (second compound 10 µM, first compound 0.00316 µM) of 104%. For the same molecule, the viability, T/C (second compound 10 µM, first compound 0.01 µM) was 97.7%, the viability, T/C [22] was 93.6% and the viability, T/C [23] was 76.9%. The viability, T/C [24] was 48.7% and the viability, T/C [25] was 32.2%.

With `C#Cc1c(F)ccc2cc(O)cc(-c3ncc4c(N5CC6CCC(C5)N6)nc(OCC56CCCN5CC(F)C6)nc4c3F)c12` (stereo unspecified) + Cc1c(S(C)(=O)=O)c(-c2cc(F)cc(N3CCN(c4ccc(NS(=O)(=O)c5ccc(NC(CCN6CCC(C(=O)OCCCP(=O)(O)O)CC6)CSc6ccccc6)c(S(=O)(=O)C(F)(F)F)c5)cc4)CC3)c2)c(-c2ccc(Cl)cc2)n1C(C)C the IC50 [1] was > 10000 nM, the IC50 [2] was 7530 nM and the IC50 [3] was 4700 nM. It also gave an IC50 [4] of 3260 nM, an IC50 [5] of 3280 nM and a viability, T/C [6] of 96.6%. For the same molecule, the viability, T/C [7] was 103%, the viability, T/C [8] was 95.6% and the viability, T/C [9] was 73.6%. For the same molecule, the viability, T/C (second compound 0.1 µM, first compound 3.16 µM) was 68.7%, the viability, T/C (second compound 0.1 µM, first compound 10 µM) was 50.7% and the viability, T/C [10] was 105%. It also gave a viability, T/C [11] of 104%, a viability, T/C [12] of 98.3% and a viability, T/C [13] of 76.6%. For the same molecule, the viability, T/C (second compound 0.316 µM, first compound 3.16 µM) was 63.4%, the viability, T/C (second compound 0.316 µM, first compound 10 µM) was 45.5% and the viability, T/C [14] was 102%. It also gave a viability, T/C [15] of 96.8%, a viability, T/C [16] of 101% and a viability, T/C [17] of 74.2%. The viability, T/C (second compound 1 µM, first compound 3.16 µM) was 59.6%, the viability, T/C (second compound 1 µM, first compound 10 µM) was 36.1% and the viability, T/C [18] was 93.3%. The viability, T/C [19] was 94.6%, the viability, T/C [20] was 97.7% and the viability, T/C [21] was 72.2%. For the same molecule, the viability, T/C (second compound 3.16 µM, first compound 3.16 µM) was 52.9%, the viability, T/C (second compound 3.16 µM, first compound 10 µM) was 23.3% and the viability, T/C [22] was 97.2%. For the same molecule, the viability, T/C [23] was 97.2%, the viability, T/C [24] was 99% and the viability, T/C [25] was 89.5%. It also gave a viability, T/C (second compound 10 µM, first compound 3.16 µM) of 51.3% and a viability, T/C (second compound 10 µM, first compound 10 µM) of 12.7%.

`O=C(c1ccc(F)c(F)c1Nc1ccc(I)cc1F)N1CC(O)([C@@H]2CCCCN2)C1` + CCN1C(C(=O)NC23CCC(C(=O)O)(CC2)CC3)C(c2cccc(Cl)c2F)C2(C(=O)Nc3cc(Cl)ccc32)C12CCCCC2 gave an IC50 (curve of first compound, second compound 0.03 µM) of 56.2 nM, an IC50 (curve of first compound, second compound 0.0949 µM) of 56.9 nM and an IC50 (curve of first compound, second compound 0.3 µM) of 45.2 nM. For the same molecule, the IC50 (curve of first compound, second compound 0.949 µM) was 36 nM, the IC50 (curve of first compound, second compound 3 µM) was 14.5 nM and the viability, T/C (second compound 0.03 µM, first compound 0.00316 µM) was 81.9%. For the same molecule, the viability, T/C (second compound 0.03 µM, first compound 0.01 µM) was 65.3%, the viability, T/C (second compound 0.03 µM, first compound 0.0316 µM) was 53.4% and the viability, T/C (second compound 0.03 µM, first compound 0.1 µM) was 47.6%. It also gave a viability, T/C (second compound 0.03 µM, first compound 0.316 µM) of 30.3%, a viability, T/C (second compound 0.03 µM, first compound 1 µM) of 5.13% and a viability, T/C (second compound 0.0949 µM, first compound 0.00316 µM) of 84.8%. The viability, T/C (second compound 0.0949 µM, first compound 0.01 µM) was 64.5%, the viability, T/C (second compound 0.0949 µM, first compound 0.0316 µM) was 54.1% and the viability, T/C (second compound 0.0949 µM, first compound 0.1 µM) was 47.6%. The viability, T/C (second compound 0.0949 µM, first compound 0.316 µM) was 30.6%, the viability, T/C (second compound 0.0949 µM, first compound 1 µM) was 4.62% and the viability, T/C (second compound 0.3 µM, first compound 0.00316 µM) was 95.7%. The viability, T/C (second compound 0.3 µM, first compound 0.01 µM) was 63.6%, the viability, T/C (second compound 0.3 µM, first compound 0.0316 µM) was 53.2% and the viability, T/C (second compound 0.3 µM, first compound 0.1 µM) was 44.4%. For the same molecule, the viability, T/C (second compound 0.3 µM, first compound 0.316 µM) was 27.3%, the viability, T/C (second compound 0.3 µM, first compound 1 µM) was 4.93% and the viability, T/C (second compound 0.949 µM, first compound 0.00316 µM) was 86%. For the same molecule, the viability, T/C (second compound 0.949 µM, first compound 0.01 µM) was 58.5%, the viability, T/C (second compound 0.949 µM, first compound 0.0316 µM) was 52.3% and the viability, T/C (second compound 0.949 µM, first compound 0.1 µM) was 40.3%. The viability, T/C (second compound 0.949 µM, first compound 0.316 µM) was 22.6%, the viability, T/C (second compound 0.949 µM, first compound 1 µM) was 4.93% and the viability, T/C (second compound 3 µM, first compound 0.00316 µM) was 70.9%. The viability, T/C (second compound 3 µM, first compound 0.01 µM) was 48.6%, the viability, T/C (second compound 3 µM, first compound 0.0316 µM) was 43% and the viability, T/C (second compound 3 µM, first compound 0.1 µM) was 31.7%. For the same molecule, the viability, T/C (second compound 3 µM, first compound 0.316 µM) was 11.5% and the viability, T/C (second compound 3 µM, first compound 1 µM) was 4.76%.

With `Cc1c(S(C)(=O)=O)c(-c2cc(F)cc(N3CCN(c4ccc(NS(=O)(=O)c5ccc(NC(CCN6CCC(C(=O)OCCCP(=O)(O)O)CC6)CSc6ccccc6)c(S(=O)(=O)C(F)(F)F)c5)cc4)CC3)c2)c(-c2ccc(Cl)cc2)n1C(C)C` (stereo unspecified) the viability, T/C (compound 0.1 µM) was 96.4% [middle of 14 runs], the viability, T/C (compound 0.316 µM) was 105% [middle of 14 runs] and the viability, T/C (compound 1 µM) was 98.3% [middle of 14 runs]. The viability, T/C (compound 3.16 µM) was 98.5% [middle of 14 runs], the viability, T/C (compound 10 µM) was 95% [middle of 14 runs] and the IC50 (compound alone, run of 10/11/2022) was > 10000 nM.

Reference: PubChem BioAssay AID1963443 (Molecular Pharmacology Branch, DTP, NCI, 2024)
